Measured values from patent publication US20220062233A1 (The Board of Trustees of the Leland Stanford Junior …, priority 2018, published 2022).

Experiments:
[1] = target: T1, interaction between Supt4h and NGN (subunit of Supt5h) (Homo sapiens, UniProt O00267+P63272); experiment: Split Gaussia luciferase complementation assay (M2-8 Luciferase); assay type: cell-based; settings: M2-8 cells
T1 construct: expressed in transfected cells
Method in brief: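 HEK293-derived M2-8 cells inducibly express Supt4h-Gluc1 and NGN-Gluc2 fragments (stabilizing mutations) on RheoSwitch ligand addition; ligand plus compound added 24 h after plating and left 24 h. Cells frozen, lysed with 10 μg/ml native coelenterazine, 1 h room temperature dark; complemented luciferase luminescence read.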

M2-8 cells = experiment: M2-8 Cell viability Assay; assay type: cell-based; settings: at the concentration of 1000 nM
mutant HTT [2] = experiment: Mutant HTT assay in lymphoblastoid cells (LBC), Western blot; assay type: cell-based, human; settings: read-out: LBC IC20 (nM) mHTT, 3 days compound treatment
Method in brief: (§1)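 HD patient lymphoblastoid cells (GM14044, 250 CAG repeats in mutant allele) treated with compound for 3 days. Lysates normalised by BCA, run on SDS-PAGE and immunoblotted: mutant HTT with anti-polyQ MW1, wild-type HTT with anti-Huntingtin antibody, TBP and tubulin also probed. Band intensities quantified by infrared imaging.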

wild-type HTT = experiment: Wild-type HTT assay in lymphoblastoid cells (LBC), Western blot; assay type: cell-based, human; settings: 3 days compound treatment, read-out: LBC IC20 (nM) wtHTT
Method in brief: as §1

[3] = tested on: Lymphoblastoid cells (GM14044); experiment: LBC cell viability (Cell Titer-Glo); assay type: cell-based, human; settings: at the concentration of IC20, 3-day compound treatment
Description: Cell viability was determined by Cell Titer-Glo reagent (Promega, PRG9243). After 3-day compound treatment, 15 μl of cell suspension was taken out from plate and incubated with 10 μl of CTG reagent. The values of reaction mixture were detected by Tecan.

mutant HTT [4] = experiment: Mutant HTT assay in induced pluripotent stem cells (iPSC); assay type: cell-based, human; settings: HD patient iPSCs, one day incubation, read-out: iPSC IC20 (nM) mHTT
Method in brief: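 Huntington's disease patient iPSCs (ND50036) plated at 7,000 cells/well, compound-treated after 48 h for one day in mTeSR1. Lysates normalised by BCA protein, then mutant HTT measured by sandwich ELISA: anti-human HTT capture, biotinylated mutant-HTT-specific detection, streptavidin-HRP/TMB colorimetric readout, interpolated from a standard curve.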

[5] = tested on: Huntington's disease patient iPSCs (ND50036); experiment: iPSC viability at IC20; assay type: cell-based, human; settings: at the concentration of IC20
mouse hepatocytes = experiment: In vitro metabolic stability in mouse hepatocytes; assay type: in vitro ADME
Description: A. In Vitro Metabolic Stability in Hepatocyte
A compound's metabolic stability was assessed using mouse hepatocytes incubated with pre-defined concentration of test articles over several incubation period. The extent of metabolism was calculated from the disappearance of the test compound measured by liquid chromatography mass spectrometry (LC-MS), compared to that of 0-min control. After incubation, quench solutions including internal standards were added and analyzed by LC/MS. The elimination rate constant and intrinsic clearance (CLhepatocyte) values were calculated by linear regression of the compound elimination over the duration of incubation, normalized to the cell number in the given volume of incubation medium.

[6] = tested on: Gmr::HTT97Q fly (mutant HTT, rough eye); experiment: HD-Drosophila phenotypic assay (rough eye analysis); assay type: in vivo, Drosophila melanogaster; settings: Gmr-HTT97Q flies, compound 10 μM in media
Text: D. Alleviation of Neuron Degeneration Phenotypes of Mutant HTT in Drosophila HD Models
The Drosophila melanogaster (fruit fly) HD models carry the coding sequence of human HTT exon1 with 97 CAG repeats to mimic mutant HTT of Huntington's disease (HD). The Gmr::HTT97Q fly, expressing mutant HTT primarily in the neurons of Drosophila compound eyes, has a severe degeneration of photoreceptor neurons and the phenotypic trait ‘rough eye’. All of the fly stocks and genetics crosses are maintained at 25° C. on standard cornmeal yeast agar media.
b. Eye Morphology (Rough Eye) Analysis
Fifteen adult male flies (Gmr-HTT97Q/Gmr-HTT97Q or Gmr/Gmr) are crossed with 15 virgin female flies W1118(+/+) in a vial containing standard yeast agar media with the compound in a concentration of 10 μM. Parent-flies are removed from vials at day 7, followed by a collection of newly hatched flies for ‘rough eye’ analysis. The morphology of compound eyes is captured using a Leica DMR upright microscope equipped with a digital camera (CoolSNAP 5.0, Photometrics). To increase the depth of field, imaging software is used to create montage composite images (Helicon Focus, HeliconSoft). A total of 10 flies are collected for analysis in each individual condition, and the biological experiment is conducted three times. DMSO, the reagent solvent of the compound, is included as a control.

Row | Compound | IC50 [1] [nM] | M2-8 Cell viability (M2-8 cells) | IC20 (mutant HTT [2]) [nM] | IC20 (wild-type HTT) [nM] | LBC viability at IC20 [3] | IC20 (mutant HTT [4]; class symbols) [nM] | iPSC viability at IC20 [5] | Mouse HepStability (CLhepatocyte) (mouse hepatocytes) | IC20 (mutant HTT [4]; numeric bounds) [nM] | HD-Drosophila Phenotypic assay (rescue of rough eye phenotype) [6]
1 | OCc1ccc(CN[C@@H]2CCCc3c2[nH]c2ccc(Br)cc32)s1 [Compound 36, (R)-(5-(((6-bromo-2,3,4,9-tetrahydro-1H-carbazol-1-yl)amino)methyl)thiophen-2-yl)methanol] | ≤ 100 | + (cell viability is greater than 50% at the concentration of 1000 nM) | 101 to 300 | > 1000 | * (cell viability is greater than 60% at the concentration of IC20) | < 100 | + (cell viability is greater than 75% at the concentration of IC20) | C (CLhepatocyte >30 μl/min/10^6cells) | – | –
2 | OCc1ccc(CN[C@H]2CCCc3c2[nH]c2ccc(Br)cc32)cc1 [Compound 3] | > 1000 | + (cell viability is greater than 50% at the concentration of 1000 nM) | > 1000 | > 1000 | – | – | – | – | > 100 | @ (rough eye phenotype of HD flies is rescued by testing compound less than 40%)
